Measurements as given in PMC10176505, “PYK-SubstitutionOME: an integrated database containing allosteric coupling, ligand affinity and mutational, structural, pathological, bioinformatic and computational information about pyruvate kinase isozymes” (Database: The Journal of Biological Databases and Curation, 2023).
One block for each compound: values may come before it.

Legend:
[1] = target: T1, rM1PYK (Oryctolagus cuniculus, UniProt P11974); assay: X-ray crystal structure, […] Å; assay type: binding; conditions: active site of some subunits; may stem from the crystallisation medium
T1 construct: gene PKM; rabbit muscle M1 isozyme; homotetramer; crystal structures
T1 sequence (P11974 2-531): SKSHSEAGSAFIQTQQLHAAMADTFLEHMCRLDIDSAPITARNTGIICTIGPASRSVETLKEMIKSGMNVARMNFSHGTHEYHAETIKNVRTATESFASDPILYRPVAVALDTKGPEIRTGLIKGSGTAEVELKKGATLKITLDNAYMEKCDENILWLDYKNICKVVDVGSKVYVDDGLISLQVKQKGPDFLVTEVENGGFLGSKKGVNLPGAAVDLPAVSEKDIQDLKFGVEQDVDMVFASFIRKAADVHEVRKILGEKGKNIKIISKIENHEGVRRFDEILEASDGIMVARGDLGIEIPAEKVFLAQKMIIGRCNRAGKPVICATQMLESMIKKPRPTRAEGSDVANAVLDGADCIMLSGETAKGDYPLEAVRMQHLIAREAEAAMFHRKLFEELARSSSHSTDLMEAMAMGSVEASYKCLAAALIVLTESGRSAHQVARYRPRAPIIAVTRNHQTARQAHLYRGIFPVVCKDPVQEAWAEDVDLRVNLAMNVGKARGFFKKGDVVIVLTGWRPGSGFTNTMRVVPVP

[2] = target: T2, hLPYK (Homo sapiens, UniProt P30613); assay: enzyme kinetics, allosteric linkage analysis; assay type: biochemical; conditions: allosteric inhibitor site; effector binding in absence of PEP; read-out: Kix-Ala
T2 construct: gene PKLR; full-length liver isozyme; homotetramer; purified or partially purified
T2 sequence (P30613 1-543 isoform P30613-2): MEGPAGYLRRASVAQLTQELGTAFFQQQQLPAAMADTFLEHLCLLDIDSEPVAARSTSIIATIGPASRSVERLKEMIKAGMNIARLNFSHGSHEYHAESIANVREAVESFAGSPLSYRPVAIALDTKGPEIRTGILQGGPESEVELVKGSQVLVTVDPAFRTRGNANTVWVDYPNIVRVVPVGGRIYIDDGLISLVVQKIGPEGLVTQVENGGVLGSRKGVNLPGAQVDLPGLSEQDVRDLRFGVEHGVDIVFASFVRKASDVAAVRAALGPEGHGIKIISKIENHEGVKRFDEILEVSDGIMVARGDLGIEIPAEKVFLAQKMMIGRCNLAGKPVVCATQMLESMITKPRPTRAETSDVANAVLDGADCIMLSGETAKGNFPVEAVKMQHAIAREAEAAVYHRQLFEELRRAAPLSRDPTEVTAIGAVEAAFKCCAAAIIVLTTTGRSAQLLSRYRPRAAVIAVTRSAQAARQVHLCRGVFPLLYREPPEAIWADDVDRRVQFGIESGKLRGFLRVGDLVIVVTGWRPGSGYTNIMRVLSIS
Description: enzyme kinetics, allosteric linkage analysis on hLPYK | (ii) Kix-Ala, the binding of Ala

[3] = target: T2, hLPYK; assay: enzyme kinetics, allosteric linkage analysis; assay type: biochemical; conditions: allosteric activator site; effector binding in absence of PEP

SMILES: O=C(O)CCC(=O)O [succinate]
X-ray crystal structure, 2.2 Å [1]: active sites are populated by either a phosphonate analogue of PEP or succinate

Kd [2]: 250 µM
SMILES: C[C@H](N)C(=O)O [alanine]

Kix-FBP [3]: (iii) Kix-FBP, the binding of Fru-1,6-BP
SMILES: O=P(O)(O)OC[C@H]1OC(O)(COP(=O)(O)O)[C@@H](O)[C@@H]1O (stereo partly drawn) [fructose-1,6-bisphosphate]
